Measurements from US11384079B2, “6-5 fused rings as C5a inhibitors” (CHEMOCENTRYX, INC., priority 2017, dated 2022).

Target: T1, C5aR (Homo sapiens, UniProt P21730)
T1 construct: U937 cells are a monocytic cell line which express C5aR; host or cells: U937 cells (cAMP treated) or isolated neutrophils
T1 sequence (P21730 1-350): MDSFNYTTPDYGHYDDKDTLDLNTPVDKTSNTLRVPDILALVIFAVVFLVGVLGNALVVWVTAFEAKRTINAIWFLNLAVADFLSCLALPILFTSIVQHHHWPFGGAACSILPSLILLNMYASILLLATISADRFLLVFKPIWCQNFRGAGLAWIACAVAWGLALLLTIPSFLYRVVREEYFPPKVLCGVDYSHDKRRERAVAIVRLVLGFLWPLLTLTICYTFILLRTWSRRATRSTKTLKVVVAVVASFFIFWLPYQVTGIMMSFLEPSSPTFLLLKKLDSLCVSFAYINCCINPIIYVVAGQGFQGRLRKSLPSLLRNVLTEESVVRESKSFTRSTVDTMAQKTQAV
Assay: chemotaxis assay (C5aR mediated migration)
Format: cell-based
Conditions: migration of U937 or neutrophil cells toward C5a (0.03 nM), 1.5 hours at 37° C., read-out: Mig IC50
Protocol: U937 cells are a monocytic cell line which express C5aR, and are available from ATCC (VA). […] Cells were grown under 5% CO2/95% air, 100% humidity at 37° C. and subcultured twice weekly at 1:6 (cells were cultured at a density range of 1×10^5 to 2×10^6 cells/mL) and harvested at 1×10^6 cells/mL. Prior to assay, cells are treated overnight with 0.5 mM of cyclic AMP (Sigma, Ohio) and washed once prior to use. cAMP treated U937 cells can be used in C5aR ligand binding and functional assays.
Optionally, human or murine neutrophils can be used to assay for compound activity. Neutrophils may be isolated from fresh human blood using density separation and centrifugation. Briefly, whole blood is incubated with equal parts 3% dextran and allowed to separate for 45 minutes. After separation, the top layer is layered on top of 15 mls of Ficoll (15 mls of Ficoll for every 30 mls of blood suspension) and centrifuged for 30 minutes at 400×g with no brake. The pellet at the bottom of the tube is then isolated and resuspended into PharmLyse RBC Lysis Buffer (BD Biosciences, San Jose, Calif.) after which the sample is again centrifuged for 10 minutes at 400×g with brake. The remaining cell pellet is resuspended as appropriate and consists of isolated neutrophils.
Optionally, compounds may be further assayed for their ability to inhibit chemotaxis in cells. Chemotaxis assays are performed using 5 μm pore polycarbonate, polyvinylpyrrolidone-coated filters in 96-well chemotaxis chambers (Neuroprobe; Gaithersburg, Md.) using chemotaxis buffer (Hank's balanced salt solution (HBSS) and 1% FBS). C5aR ligands (i.e., C5a, R&D Systems; Minneapolis, Minn.) are use to evaluate compound mediated inhibition of C5aR mediated migration. Other chemokines (i.e., SDF-1α; R&D Systems; Minneapolis, Minn.) are used as specificity controls. […] The chambers are incubated 1.5 hours at 37° C., and the number of cells in the lower chamber quantified either by direct cell counts in five high powered fields per well or by the CyQuant assay (Molecular Probes), a fluorescent dye method that measures nucleic acid content and microscopic observation.

SMILES | IC50
CCc1cccc(CC)c1-n1nc2c(c1-c1c(F)cc(Cl)c3[nH]ccc13)CN(c1ncc(OC(C)C)cn1)CC2 [Example 1.048] | < 5 nM
Cc1cccc(C)c1-n1nc2c(c1-c1ccc(Cl)c3[nH]ncc13)CN(c1ncc(C(F)(F)F)cn1)CC2 [Example 1.049] | 5 to 50 nM
CCc1cccc(CC)c1-n1nc2c(c1-c1cc(F)c(OC)c3[nH]ccc13)CN(c1ncc(C3CC3)cn1)CC2 [Example 1.050] | < 5 nM
CCc1cccc(CC)c1-n1nc2c(c1-c1cc(F)c(OC)c3[nH]ncc13)CN(c1ncc(C(F)(F)F)cc1F)CC2 [Example 1.051] | < 5 nM
CCc1cccc(CC)c1-n1nc2c(c1-c1ccc(OC)c3[nH]ncc13)CN(c1ncc(C(F)(F)F)cc1F)CC2 [Example 1.052] | 5 to 50 nM
CCc1cccc(CC)c1-n1nc2c(c1-c1ccc(OC)c3[nH]ncc13)CN(c1ncc(C(F)(F)F)cn1)CC2 [Example 1.053] | < 5 nM
CCc1cccc(CC)c1-n1nc2c(c1-c1cc(F)c(OC)c3[nH]ccc13)CN(c1ncc(OC(C)C)cn1)CC2 [Example 1.054] | < 5 nM
CCc1cccc(CC)c1-n1nc2c(c1-c1c(F)cc(Cl)c3[nH]ccc13)CN(c1ncc(CN3CCCC3)cn1)CC2 [Example 1.055] | 5 to 50 nM
CCc1cccc(CC)c1-n1nc2c(c1-c1cc(F)c(OC)c3[nH]ncc13)CN(c1ncc(C(F)(F)F)cn1)CC2 [Example 1.056] | < 5 nM
CCc1cccc(CC)c1-n1nc2c(c1-c1ccc(Cl)c3[nH]ccc13)CN(c1cnccn1)CC2 [Example 1.057] | < 5 nM
CCc1cccc(CC)c1-n1nc2c(c1-c1ccc(Cl)c3[nH]ccc13)CN(c1cnc(C(F)(F)F)cn1)CC2 [Example 1.058] | < 5 nM
CCc1cccc(CC)c1-n1nc2c(c1-c1cc(F)c(OC)c3[nH]ccc13)CN(c1ncc(C(F)(F)F)cn1)CC2 [Example 1.059] | < 5 nM
Cc1cccc(C)c1-n1nc2c(c1-c1ccc(Cl)c3[nH]ccc13)CN(c1ncc(C(F)(F)F)cn1)CC2 [Example 1.060] | < 5 nM
CCc1cccc(CC)c1-n1nc2c(c1-c1cc(F)c(OC)c3[nH]ccc13)CN(c1ncc(C(F)(F)F)cc1F)CC2 [Example 1.061] | < 5 nM
CCc1cccc(CC)c1-n1nc2c(c1-c1c(F)cc(Cl)c3[nH]ccc13)CN(c1ncc(C3CC3)cc1F)CC2 [Example 1.062] | < 5 nM
CCc1cccc(CC)c1-n1nc2c(c1-c1ccc(Cl)c3[nH]ccc13)CN(c1ncc(OC(C)C)cn1)CC2 [Example 1.063] | < 5 nM
CCc1cccc(CC)c1-n1nc2c(c1-c1ccc(Cl)c3[nH]ccc13)CN(c1ncc(C(N)=O)cn1)CC2 [Example 1.064] | 50 to 500 nM

SMILES | IC50
CCc1cccc(CC)c1-n1nc2c(c1-c1ccc(Cl)c3[nH]ncc13)CN(c1ncc(C3CC3)cn1)CC2 [Example 1.065] | < 5 nM
CCc1cccc(CC)c1-n1nc2c(c1-c1c(F)cc(CO)c3[nH]ccc13)CN(c1ncc(C3CC3)cn1)CC2 [Example 1.066] | < 5 nM
CCc1cccc(CC)c1-n1nc2c(c1-c1ccc(Cl)c3[nH]ccc13)CN(c1cnc(C3CC3)cn1)CC2 [Example 1.067] | 5 to 50 nM
CCc1cccc(CC)c1-n1nc2c(c1-c1cc(F)c(CO)c3[nH]ccc13)CN(c1ncc(C(C)(C)O)cn1)CC2 [Example 1.068] | 5 to 50 nM
CCc1cccc(CC)c1-n1nc2c(c1-c1ccc(Cl)c3[nH]cnc13)CN(c1ncc(C(F)(F)F)cn1)CC2 [Example 1.069] | < 5 nM
CCc1cccc(CC)c1-n1nc2c(c1-c1c(F)cc(Cl)c3[nH]ccc13)CN(c1ncc(C3CC3)cn1)CC2 [Example 1.070] | < 5 nM
CCc1cccc(CC)c1-n1nc2c(c1-c1ccc(Cl)c3[nH]ccc13)CN(c1ncc(C3CC3)cc1F)CC2 [Example 1.071] | < 5 nM
CCc1cccc(CC)c1-n1nc2c(c1-c1ccc(Cl)c3[nH]ccc13)CN(c1ncc(C)c(CO)n1)CC2 [Example 1.072] | 5 to 50 nM
CCc1cccc(CC)c1-n1nc2c(c1-c1ccc(Cl)c3[nH]ccc13)CN(c1ncc(C3CC3)cc1Cl)CC2 [Example 1.073] | < 5 nM
CCc1cccc(CC)c1-n1nc2c(c1-c1ccc(Cl)c3[nH]ccc13)CN(c1ncc(C(C)(C)O)cn1)CC2 [Example 1.074] | < 5 nM
CCc1cccc(CC)c1-n1nc2c(c1-c1ccc(Cl)c3[nH]ccc13)CN(c1ncc(C)c(C(=O)O)n1)CC2 [Example 1.075] | 50 to 500 nM
CCc1cccc(CC)c1-n1nc2c(c1-c1c(F)cc(Cl)c3[nH]ccc13)CN(c1ncc(C(=O)N3CCCC3)cn1)CC2 [Example 1.076] | < 5 nM
CCc1cccc(CC)c1-n1nc2c(c1-c1cc(F)c(CO)c3[nH]ccc13)CN(c1ncc(C(F)(F)F)cn1)CC2 [Example 1.077] | < 5 nM
CCc1cccc(CC)c1-n1nc2c(c1-c1cc(F)c(CO)c3[nH]ccc13)CN(c1ncc(C(F)(F)F)cc1F)CC2 [Example 1.078] | < 5 nM
CCc1cccc(CC)c1-n1nc2c(c1-c1ccc(F)c3[nH]ncc13)CN(c1ncc(C(F)(F)F)cc1F)CC2 [Example 1.079] | 50 to 500 nM
CCc1cccc(CC)c1-n1nc2c(c1-c1cc(Cl)c(C)c3[nH]ccc13)CN(c1ncc(C(F)(F)F)cc1F)CC2 [Example 1.080] | < 5 nM
CCc1cccc(CC)c1-n1nc2c(c1-c1cc(Cl)c(C)c3[nH]ccc13)CN(c1ncc(C(F)(F)F)cn1)CC2 [Example 1.081] | < 5 nM

Second part, the compound after the results:

IC50 | SMILES
5 to 50 nM | CCc1cccc(CC)c1-n1nc2c(c1-c1ccc3[nH]ccc3c1)CN(c1ncc(C(F)(F)F)cc1F)CC2 [Example 1.082]
5 to 50 nM | CCc1cccc(CC)c1-n1nc2c(c1-c1cc(F)c3[nH]ccc3c1)CN(c1ncc(C(F)(F)F)cc1F)CC2 [Example 1.083]
< 5 nM | CCc1cccc(CC)c1-n1nc2c(c1-c1cc(F)c(Cl)c3[nH]ccc13)CN(c1ncc(C(F)(F)F)cn1)CC2 [Example 1.084]
< 5 nM | CCc1cccc(CC)c1-n1nc2c(c1-c1cc(F)c(Cl)c3[nH]ccc13)CN(c1ncc(C(F)(F)F)cc1F)CC2 [Example 1.085]
< 5 nM | CCc1cccc(CC)c1-n1nc2c(c1-c1ccc(Cl)c3[nH]ccc13)CN(c1ccc(OC(F)(F)F)cn1)CC2 [Example 1.086]
5 to 50 nM | CCc1cccc(CC)c1-n1nc2c(c1-c1ccc(OC)c3[nH]ccc13)CN(c1ncc(C(F)(F)F)cn1)CC2 [Example 1.087]
< 5 nM | CCc1cccc(CC)c1-n1nc2c(c1-c1ccc(Cl)c3[nH]ccc13)CN(c1ncc(C(F)(F)F)cc1C)CC2 [Example 1.088]
5 to 50 nM | CCc1cccc(CC)c1-n1nc2c(c1-c1ccc(OC)c3[nH]ccc13)CN(c1ncc(C(F)(F)F)cc1F)CC2 [Example 1.089]
5 to 50 nM | Cc1cccc(C)c1-n1nc2c(c1-c1c(F)cc(CO)c3[nH]ccc13)CN(c1ncc(C(F)(F)F)cn1)CC2 [Example 1.090]
5 to 50 nM | Cc1cccc(C)c1-n1nc2c(c1-c1c(F)cc(C)c3[nH]ccc13)CN(c1ncc(Cl)cc1F)CC2 [Example 1.091]
< 5 nM | Cc1cccc(C)c1-n1nc2c(c1-c1c(F)cc(C)c3[nH]ccc13)CN(c1ncc(C(F)(F)F)cn1)CC2 [Example 1.092]
< 5 nM | CCc1cccc(CC)c1-n1nc2c(c1-c1cc(F)c(C)c3[nH]ccc13)CN(c1ncc(C(F)(F)F)cn1)CC2 [Example 1.093]
< 5 nM | CCc1cccc(CC)c1-n1nc2c(c1-c1c(F)cc(CO)c3[nH]ccc13)CN(c1ncc(C(C)C)cc1F)CC2 [Example 1.094]
< 5 nM | Cc1cccc(C)c1-n1nc2c(c1-c1c(F)cc(C)c3[nH]ccc13)CN(c1ncc(C(F)(F)F)cc1F)CC2 [Example 1.095]
< 5 nM | Cc1cccc(C)c1-n1nc2c(c1-c1c(F)cc(C)c3[nH]ccc13)CN(c1ncc(C(C)C)cn1)CC2 [Example 1.096]
5 to 50 nM | CCc1cccc(CC)c1-n1nc2c(c1-c1ccc(Cl)c3[nH]ccc13)CN(c1ncc(CO)cn1)CC2 [Example 1.097]
< 5 nM | CCc1cccc(CC)c1-n1nc2c(c1-c1c(F)cc(CO)c3[nH]ccc13)CN(c1ncc(C(C)C)cn1)CC2 [Example 1.098]
< 5 nM | CCc1cccc(CC)c1-n1nc2c(c1-c1ccc(Cl)c3[nH]ccc13)CN(c1ncc(Cl)cc1F)CC2 [Example 1.099]
< 5 nM | CCc1cccc(CC)c1-n1nc2c(c1-c1c(F)cc(CO)c3[nH]ccc13)CN(c1ccc(C(F)(F)F)cn1)CC2 [Example 1.100]
